Blank lines part the entries; values can stand above or below the molecule they belong to.
Key:
[1] = molecular target: T1, TTERecF (Caldanaerobacter subterraneus, UniProt Q8RDL3); assay: isothermal titration calorimetry; type: binding
T1 construct: gene recF; 42 kDa monomer, 84 kDa dimer with ATP or ATPγS

[2] = molecular target: T2, TTERecF (Caldanaerobacter subterraneus, UniProt Q8RDL3, N38A); assay: isothermal titration calorimetry; type: binding; conditions: pH 7.0, 20 mM Tris-HCl, 200 mM NaCl, 25 °C; one-site model; Walker A mutant
T2 construct: gene recF; 42 kDa monomer, 84 kDa dimer with ATP or ATPγS

[3] = molecular target: T3, TTERecF (Caldanaerobacter subterraneus, UniProt Q8RDL3, S283A); assay: isothermal titration calorimetry; type: binding; conditions: pH 7.0, 20 mM Tris-HCl, 200 mM NaCl, 25 °C; one-site model; signature motif mutant
T3 construct: gene recF; 42 kDa monomer, 84 kDa dimer with ATP or ATPγS

[4] = molecular target: T4, TTERecF (Caldanaerobacter subterraneus, UniProt Q8RDL3, G35A); assay: isothermal titration calorimetry; type: binding; conditions: pH 7.0, 20 mM Tris-HCl, 200 mM NaCl, 25 °C; one-site model; Walker A mutant
T4 construct: gene recF; 42 kDa monomer, 84 kDa dimer with ATP or ATPγS

[5] = molecular target: T5, TTERecF (Caldanaerobacter subterraneus, UniProt Q8RDL3, S37A); assay: isothermal titration calorimetry; type: binding
T5 construct: gene recF; 42 kDa monomer, 84 kDa dimer with ATP or ATPγS

[6] = molecular target: T6, TTERecF (Caldanaerobacter subterraneus, UniProt Q8RDL3, Q286A); assay: isothermal titration calorimetry; type: binding; conditions: pH 7.0, 20 mM Tris-HCl, 200 mM NaCl, 25 °C; one-site model; signature motif mutant
T6 construct: gene recF; 42 kDa monomer, 84 kDa dimer with ATP or ATPγS

[7] = molecular target: T7, TTERecF (Caldanaerobacter subterraneus, UniProt Q8RDL3, S282A); assay: isothermal titration calorimetry; type: binding; conditions: pH 7.0, 20 mM Tris-HCl, 200 mM NaCl, 25 °C; one-site model; signature motif mutant
T7 construct: gene recF; 42 kDa monomer, 84 kDa dimer with ATP or ATPγS

[8] = molecular target: T8, TTERecF (Caldanaerobacter subterraneus, UniProt Q8RDL3, K36A); assay: isothermal titration calorimetry; type: binding
T8 construct: gene recF; 42 kDa monomer, 84 kDa dimer with ATP or ATPγS

[9] = molecular target: T9, TTERecF-ATP dimer (Thermoanaerobacter tengcongensis MB4, UniProt Q8RDL3 1-364); assay: BLI; ATP (1 mM in preincubation); kd 1.44E-03 s-1; BLI: 20 mM Tris-HCl pH 7.0, 200 mM NaCl, 0.05% Tween 20, 25 C; biotinylated DNA on streptavidin sensors; no Mg2+ stated; conditions: protein: recombinant; tags: N-terminal His6; chain copies: 2; label: 5' biotin
T9 sequence: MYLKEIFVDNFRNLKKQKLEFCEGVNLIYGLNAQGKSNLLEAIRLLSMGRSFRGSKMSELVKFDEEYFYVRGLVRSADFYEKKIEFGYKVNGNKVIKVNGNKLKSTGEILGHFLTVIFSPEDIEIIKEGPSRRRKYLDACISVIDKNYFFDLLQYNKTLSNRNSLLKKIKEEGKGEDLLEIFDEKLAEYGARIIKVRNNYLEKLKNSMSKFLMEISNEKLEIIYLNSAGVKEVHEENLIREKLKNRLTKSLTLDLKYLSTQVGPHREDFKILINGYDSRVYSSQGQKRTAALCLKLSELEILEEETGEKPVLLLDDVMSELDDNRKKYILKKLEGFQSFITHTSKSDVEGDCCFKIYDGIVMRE

T8 sequence (Q8RDL3 whole entry K36A): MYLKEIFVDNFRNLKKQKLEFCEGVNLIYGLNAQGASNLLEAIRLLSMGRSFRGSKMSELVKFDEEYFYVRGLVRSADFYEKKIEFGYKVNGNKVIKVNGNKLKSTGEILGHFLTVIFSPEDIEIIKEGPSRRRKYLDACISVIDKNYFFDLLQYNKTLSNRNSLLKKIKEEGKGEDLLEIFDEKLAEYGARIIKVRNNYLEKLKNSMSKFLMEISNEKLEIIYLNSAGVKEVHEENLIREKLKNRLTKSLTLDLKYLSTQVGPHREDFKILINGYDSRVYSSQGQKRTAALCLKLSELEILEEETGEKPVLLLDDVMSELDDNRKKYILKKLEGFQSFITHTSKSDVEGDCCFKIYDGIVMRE
T6 sequence (Q8RDL3 whole entry Q286A): as the sequence (Q8RDL3 whole entry K36A) above, with A36K, Q286A counted along it
T4 sequence (Q8RDL3 whole entry G35A): as the sequence (Q8RDL3 whole entry K36A) above, with G35A, A36K counted along it
T5 sequence (Q8RDL3 whole entry S37A): as the sequence (Q8RDL3 whole entry K36A) above, with A36K, S37A counted along it
T2 sequence (Q8RDL3 whole entry N38A): as the sequence (Q8RDL3 whole entry K36A) above, with A36K, N38A counted along it
T7 sequence (Q8RDL3 whole entry S282A): as the sequence (Q8RDL3 whole entry K36A) above, with A36K, S282A counted along it
T3 sequence (Q8RDL3 whole entry S283A): as the sequence (Q8RDL3 whole entry K36A) above, with A36K, S283A counted along it

- Kd [1]: 1.3 µM
- Kd [5]: 27 ± 7.9 µM
- Kd [8]: 38 ± 8.7 µM
Molecule: Nc1ncnc2c1ncn2[C@@H]1O[C@H](COP(=O)(O)OP(=O)(O)OP(=O)(O)O)[C@@H](O)[C@H]1O [ATP]
- hardly interacted [2]: The mutants G35A and N38A hardly interacted with ATP
- KD [3]: conserved mutant residues S282A, S283A, and Q286A in signature motif was similar
- hardly interacted [4]: The mutants G35A and N38A hardly interacted with ATP
- KD [6]: conserved mutant residues S282A, S283A, and Q286A in signature motif was similar
- KD [7]: conserved mutant residues S282A, S283A, and Q286A in signature motif was similar

Molecule: Nc1ncnc2c1ncn2[C@@H]1O[C@H](CO[P@](=O)(O)O[P@](=O)(O)O[P@@](=O)(O)S)[C@@H](O)[C@H]1O [ATPɤS]
- Kd [1]: 32 µM

B1: 21mer ssDNA (ssDNA)
DNA: ACCTTATGGAAAGCATCGTAG
- Kd [9]: 0.016 µM
